Laboratory results: PubChem BioAssay AID328 (DTP/NCI, 2004)
Values joined by “and” are separate entries in the source; they are usually repeats but may differ in a detail not shown here. Equal values may be shown once. Toxic doses and inconclusive results are not listed. The calls were made as follows: active = survival T/C of 150% or more; inactive = T/C below 125% in these data.

System: BDF1 mice, P388 leukemia ip, median survival T/C
Assay: NCI In Vivo Anticancer Drug Screen. Data for tumor model P388 Leukemia (intraperitoneal) in B6D2F1 (BDF1) mice
Settings: endpoint: median survival time, higher = longer survival
Procedure, shortened: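 Each value expresses how treatment altered survival: treated-mouse outcome over vehicle-mouse outcome, both groups bearing the transplanted tumour.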

[1] = dose: 200.0 mg/kg/injection, schedule: Q04DX003 (ip), vehicle: Klucel (hydroxypropylcellulose) (HPC)
[2] = dose: 25.0 mg/kg/injection, schedule: Q01DX009 (ip), vehicle: Klucel (hydroxypropylcellulose) (HPC)
[3] = dose: 50.0 mg/kg/injection, schedule: Q01DX009 (ip), vehicle: Klucel (hydroxypropylcellulose) (HPC)
[4] = dose: 50.0 mg/kg/injection, schedule: Q01DX009 (ip), vehicle: saline with Tween-80
[5] = dose: 100.0 mg/kg/injection, schedule: Q01DX009 (ip), vehicle: saline with Tween-80
[6] = dose: 50.0 mg/kg/injection, schedule: Q01DX009 (ip), vehicle: saline

Measured: T/C

COc1cccc2c1C(=O)c1c(O)c3c(c(O)c1C2=O)CC(O)(C(C)=O)CC3OC1CC(NC(=O)CNC(=O)CN(C)C)C(O)C(C)O1 (centres undefined)
inactive: dose: 1.56 mg/kg/injection, schedule: Q01DX009 (ip), vehicle: water 101 % of control | dose: 3.13 mg/kg/injection, schedule: Q01DX009 (ip), vehicle: water 92 % of control | dose: 6.25 mg/kg/injection, schedule: Q01DX009 (ip), vehicle: water 101 % of control | dose: 12.5 mg/kg/injection, schedule: Q01DX009 (ip), vehicle: water 91 % of control

Cc1cc(N(C)C)cc(C)c1/C=C\c1ccnc2ccccc12
inactive: dose: 100.0 mg/kg/injection, schedule: Q04DX002 (ip), vehicle: saline with Tween-80 112 % of control | dose: 200.0 mg/kg/injection, schedule: Q04DX002 (ip), vehicle: saline with Tween-80 107 % of control | dose: 400.0 mg/kg/injection, schedule: Q04DX002 (ip), vehicle: saline with Tween-80 117 % of control

NC(N)=Nc1nc2ccccc2s1
inactive: dose: 12.5 mg/kg/injection, schedule: Q04DX003 (ip), vehicle: saline sonified 104 % of control | dose: 25.0 mg/kg/injection, schedule: Q04DX003 (ip), vehicle: saline sonified 100 % of control | dose: 50.0 mg/kg/injection, schedule: Q04DX003 (ip), vehicle: saline sonified 100 % of control

CCCSCCCC(=O)O
inactive: dose: 50.0 mg/kg/injection, schedule: Q04DX003 (ip), vehicle: Klucel (hydroxypropylcellulose) (HPC) 91 % of control | [1] 91 % of control

NC1CCC(CCCC2CCCC2)CC1 (centres undefined)
inactive: [2] 101 % of control | [3] 110 % of control

CC12NC(=O)NC1(C)NC(=O)N2 (centres undefined)
inactive: dose: 100.0 mg/kg/injection, schedule: Q04DX003 (ip), vehicle: saline with Tween-80 100 % of control | dose: 200.0 mg/kg/injection, schedule: Q04DX003 (ip), vehicle: saline with Tween-80 100 % of control

CC1=CC2OC34COC3CC(OC(=O)C(F)(F)F)C4(C)C2(C)CC1 (centres undefined)
inactive: dose: 75.0 mg/kg/injection, schedule: Q04DX003 (ip), vehicle: saline with Tween-80 110 % of control | dose: 300.0 mg/kg/injection, schedule: Q04DX003 (ip), vehicle: saline with Tween-80 117 % of control

CCN(CC)C1=C(N(CC)CC)C(N(CC)CC)=C(N(CC)CC)C1=O.[C-]#[O+].[C-]#[O+].[C-]#[O+].[Fe]
inactive: dose: 100.0 mg/kg/injection, schedule: Q04DX003 (ip), vehicle: Klucel (hydroxypropylcellulose) (HPC) 101 % of control | [1] 91 % of control | dose: 400.0 mg/kg/injection, schedule: Q04DX003 (ip), vehicle: Klucel (hydroxypropylcellulose) (HPC) 115 % of control

Cc1cc(NC(=O)Nc2ccc(Cl)cc2)no1
inactive: [4] 100 % of control | [5] 100 % of control | dose: 200.0 mg/kg/injection, schedule: Q01DX009 (ip), vehicle: saline with Tween-80 100 % of control

O=C1Oc2ccccc2C1=O
inactive: [6] 100 % of control | dose: 50.0 mg/kg/injection, schedule: Q04DX003 (ip), vehicle: saline 100 % of control | dose: 100.0 mg/kg/injection, schedule: Q01DX009 (ip), vehicle: saline 100 % of control | dose: 100.0 mg/kg/injection, schedule: Q04DX003 (ip), vehicle: saline 100 % of control | dose: 200.0 mg/kg/injection, schedule: Q04DX003 (ip), vehicle: saline 100 % of control

CC(C)(C)c1cc(I)c(O)c(CN)c1
inactive: dose: 12.5 mg/kg/injection, schedule: Q01DX009 (ip), vehicle: saline with Tween-80 105 % of control | dose: 12.5 mg/kg/injection, schedule: Q01DX009 (ip), vehicle: saline 95 % of control | dose: 25.0 mg/kg/injection, schedule: Q01DX009 (ip), vehicle: saline with Tween-80 109 % of control | dose: 25.0 mg/kg/injection, schedule: Q01DX009 (ip), vehicle: saline 104 % of control | [4] 114 % of control | [6] 104 % of control | [5] 114 % of control

Cc1c2ccncc2c(C)c2c1[nH]c1ccccc12
active: dose: 10.0 mg/kg/injection, schedule: Q01DX010 (ip), vehicle: saline 163 % of control | dose: 15.0 mg/kg/injection, schedule: Q01DX009 (ip), vehicle: water 175 % of control | dose: 15.0 mg/kg/injection, schedule: Q04DX003 (ip), vehicle: water 166 % of control | dose: 20.0 mg/kg/injection, schedule: Q01DX010 (ip), vehicle: saline 159 % of control and 179 % of control | dose: 21.6 mg/kg/injection, schedule: Q04DX003 (ip), vehicle: water 172 % of control and 176 % of control | dose: 24.0 mg/kg/injection, schedule: Q04DX003 (ip), vehicle: clinical formulation 184 % of control | dose: 30.0 mg/kg/injection, schedule: Q04DX003 (ip), vehicle: water 208 % of control | dose: 36.0 mg/kg/injection, schedule: Q04DX003 (ip), vehicle: water 235 % of control and 215 % of control | dose: 40.0 mg/kg/injection, schedule: Q01DX010 (ip), vehicle: saline 150 % of control | dose: 40.0 mg/kg/injection, schedule: Q04DX003 (ip), vehicle: clinical formulation 208 % of control | dose: 100.0 mg/kg/injection, schedule: Q04DX002 (ip), vehicle: Klucel (hydroxypropylcellulose) (HPC) 200 % of control | dose: 200.0 mg/kg/injection, schedule: Q04DX002 (ip), vehicle: Klucel (hydroxypropylcellulose) (HPC) 190 % of control
inactive: dose: 14.4 mg/kg/injection, schedule: Q04DX003 (ip), vehicle: clinical formulation 117 % of control | dose: 120.0 mg/kg/injection, schedule: Q04DX003 (ip), vehicle: water 100 % of control | dose: 400.0 mg/kg/injection, schedule: Q04DX002 (ip), vehicle: Klucel (hydroxypropylcellulose) (HPC) 90 % of control

Cc1ccc(C(=O)[O][Hg][CH2]C2COC([CH2][Hg][O]C(=O)c3ccc(C)cc3)CO2)cc1 (centres undefined)
inactive: dose: 2.25 mg/kg/injection, schedule: Q01DX009 (ip), vehicle: saline with Tween-80 90 % of control | dose: 6.25 mg/kg/injection, schedule: Q01DX009 (ip), vehicle: saline sonified 110 % of control | dose: 6.25 mg/kg/injection, schedule: Q04DX003 (ip), vehicle: saline with Tween-80 107 % of control | dose: 12.5 mg/kg/injection, schedule: Q04DX003 (ip), vehicle: saline with Tween-80 107 % of control | [2] 109 % of control | dose: 25.0 mg/kg/injection, schedule: Q04DX003 (ip), vehicle: saline with Tween-80 103 % of control | [3] 109 % of control | dose: 100.0 mg/kg/injection, schedule: Q01DX009 (ip), vehicle: Klucel (hydroxypropylcellulose) (HPC) 86 % of control | dose: 225.0 mg/kg/injection, schedule: Q04DX003 (ip), vehicle: Klucel (hydroxypropylcellulose) (HPC) 109 % of control
active: dose: 25.0 mg/kg/injection, schedule: Q01DX009 (ip), vehicle: saline sonified 150 % of control

O=C(c1ccccc1)C1CC1c1ccccc1 (centres undefined)
inactive: dose: 100.0 mg/kg/injection, schedule: Q01DX001 (ip), vehicle: Klucel (hydroxypropylcellulose) (HPC) 120 % of control | dose: 200.0 mg/kg/injection, schedule: Q01DX001 (ip), vehicle: Klucel (hydroxypropylcellulose) (HPC) 104 % of control | dose: 400.0 mg/kg/injection, schedule: Q01DX001 (ip), vehicle: Klucel (hydroxypropylcellulose) (HPC) 100 % of control

CCC(SC(CC(=O)O)C(=O)O)C(=O)O (centres undefined)
inactive: dose: 12.5 mg/kg/injection, schedule: Q01DX001 (ip), vehicle: saline with Tween-80 100 % of control | dose: 25.0 mg/kg/injection, schedule: Q01DX001 (ip), vehicle: saline with Tween-80 99 % of control | dose: 50.0 mg/kg/injection, schedule: Q01DX001 (ip), vehicle: saline with Tween-80 90 % of control

COC1CCC(OC2CC(C3(C)CCC4(CC(O)C(C)C(C(C)/C=C(\C)C(=O)C(C)CC(C)C(=O)O)O4)O3)OC3(OC(C4OC(O)(CO)C(C)CC4C)CC3C)C2C)OC1C (centres undefined)
inactive: dose: 62.5 micrograms/kg/injection, schedule: Q01DX009 (ip), vehicle: Klucel (hydroxypropylcellulose) (HPC) 111 % of control | dose: 125.0 micrograms/kg/injection, schedule: Q01DX009 (ip), vehicle: Klucel (hydroxypropylcellulose) (HPC) 97 % of control | dose: 250.0 micrograms/kg/injection, schedule: Q01DX009 (ip), vehicle: Klucel (hydroxypropylcellulose) (HPC) 97 % of control | dose: 500.0 micrograms/kg/injection, schedule: Q01DX009 (ip), vehicle: Klucel (hydroxypropylcellulose) (HPC) 97 % of control

Nc1nc2c(c(=O)[nH]1)N(CCS(=O)(=O)F)C(CNc1ccc(C(=O)NC(CCC(=O)O)C(=O)O)cc1)CN2 (centres undefined)
inactive: dose: 50.0 mg/kg/injection, schedule: Q04DX003 (ip), vehicle: sodium bicarbonate 105 % of control | dose: 100.0 mg/kg/injection, schedule: Q04DX003 (ip), vehicle: sodium bicarbonate 99 % of control | dose: 200.0 mg/kg/injection, schedule: Q04DX003 (ip), vehicle: sodium bicarbonate 99 % of control
